Here are results for one compound from ChEMBL document CHEMBL1158917, “Elabunin, a New Cytotoxic Triterpene from an East African Medicinal Plant, Elaeodendron buchananii” (1990).

Molecules are shown by their SMILES. Values after ≈ are worked out from the molar mass of the structure shown.

The test system of the assay is L1210. Briefly: Cytotoxicity against mouse L1210 cells. The format is functional. To be noted: read-out: ED50 (the source's name).

Turning to `C=C(CCC=C(C)C)[C@H]1[C@H](O)C[C@]2(C)[C@@H]1CC[C@@H]1[C@@]3(C)CCC(=O)C(C)(C)[C@@H]3CC[C@]12C` [ELABUNIN], the EC50 turned out to be 1 µg/mL (≈ 2.27 µM).
